Paper PMC5716981, “Inhibition of A2A Adenosine Receptor Signaling in Cancer Cells Proliferation by the Novel Antagonist TP455” (Frontiers in Pharmacology, 2017)

Tests used:
MRMT-1 cells = assay: DELFIA cell proliferation (BrdU) in MRMT-1 cells; assay type: cell-based, rat; settings: 10 μM inhibitor 30 min pretreatment, 100 nM CGS21680, 48 h
Procedure: (§1) Tumoral cell lines A375 (human skin malignant melanoma), A549 (adenocarcinomic human alveolar basal epithelial cells) and rat cell line MRMT-1 (rat breast carcinoma cells) were purchased from ATCC and were grown adherently at 37°C in 5% CO2/95% air. A375 and A549 were maintained in DMEM high glucose medium containing 10% fetal calf serum, penicillin (100 U/mL) and streptomycin ([…]) and MRMT-1 were grown in RPMI 1640 medium containing 10% fetal calf serum, penicillin (100 U/mL), streptomycin ([…]), and L-glutamine (2 mM). Adenosine receptor agonists and antagonists and inhibitors of kinases, were made up in dimethyl sulfoxide solution (DMSO) and then diluted in cell culture medium (0.1 max 0.2% of DMSO). An equal amount of DMSO was used in control cells (CTR).
(§2) The DELFIA assay was performed to determine cell proliferation according to the manufacturer’s protocol from PerkinElmer (Milan, Italy). The assay is a time-resolved fluoroimmunoassay based on the incorporation of BrdU into newly synthesized DNA strands of proliferating cells cultured in microliter plates. Incorporated BrdU is detected using a europium labeled monoclonal antibody and the fluorescence measured is proportional to the DNA synthesis in the cell population of each well. A375, A549, and MRMT-1 cells were cultured over night at 1000 cells/well in a 96-well plate (at a final volume of 100 μl per well), agonists and antagonists were added and the cells were incubated for 30′ before addition of the BrdU-Labeling solution 10 μl/well. The cells were then cultured for 24, 48, or 72 h. At the end of the incubation period, cells were fixed (fix solution 100 μl/well), added with 100 μl/well of Anti-BrdU-Eu (0.5 μg/ml) and incubated for 120 min at room temperature. After four washes, 200 μl of DELFIA Inducer were added at room temperature for 15 min and the Eu-fluorescence was detected through an Ensight Perkin Elmer-multimode plate reader (Perkin Elmer, Milan, Italy). Two kinds of controls were performed: the blank where no cells were added to the well but only culture medium and the background where no BrdU was added to the wells.

A375 cells = assay: DELFIA cell proliferation (BrdU) in A375 cells; assay type: cell-based, human; settings: 10 μM inhibitor 30 min pretreatment, 100 nM CGS21680, 48 h
Procedure: as §1, §2

A549 cells = assay: DELFIA cell proliferation (BrdU) in A549 cells; assay type: cell-based, human; settings: 10 μM inhibitor 30 min pretreatment, 100 nM CGS21680, 24 h
Procedure: as §1, §2

## Oc1ccc(-c2nc(-c3ccc(F)cc3)c(-c3ccncc3)[nH]2)cc1 [SB202190, 4-(4-Fluorophenyl)-2-(4-hydroxyphenyl)-5-(4-pyridyl)-1H-imidazole]
MRMT-1 cells
  inhibition of CGS21680-induced cell proliferation by signalling inhibitor: did not
A375 cells
  inhibition of CGS21680-induced cell proliferation by signalling inhibitor: did not
A549 cells
  inhibition of CGS21680-induced cell proliferation by signalling inhibitor: did not

## N#CC(=C(/N)Sc1ccccc1N)/C(C#N)=C(/N)Sc1ccccc1N [U0126]
MRMT-1 cells
  inhibition of CGS21680-induced cell proliferation by signalling inhibitor: strongly reduced
A375 cells
  inhibition of CGS21680-induced cell proliferation by signalling inhibitor: strongly reduced
A549 cells
  inhibition of CGS21680-induced cell proliferation by signalling inhibitor: strongly reduced

## CCCCCCCCCCCCCCCCCCOC[C@H](COP(=O)(O)O[C@H]1[C@H](O)[C@@H](O)[C@H](O)C[C@H]1OC)OC [SH5, D-3-Deoxy-2-O-methyl-myo-inositol 1-[(R)-2-methoxy-3-(octadecyloxy)propyl hydrogen phosphate]]
MRMT-1 cells
  inhibition of CGS21680-induced cell proliferation by signalling inhibitor: strongly reduced
A375 cells
  inhibition of CGS21680-induced cell proliferation by signalling inhibitor: strongly reduced
A549 cells
  inhibition of CGS21680-induced cell proliferation by signalling inhibitor: strongly reduced

## Oc1c2ccccc2c2c3c(cccc13)N=N2 [SP600125, 1,9-Pyrazoloanthrone]
MRMT-1 cells
  inhibition of CGS21680-induced cell proliferation by signalling inhibitor: strongly reduced
A375 cells
  inhibition of CGS21680-induced cell proliferation by signalling inhibitor: strongly reduced
A549 cells
  inhibition of CGS21680-induced cell proliferation by signalling inhibitor: strongly reduced

## Nc1ncnc2c1ncn2C1CCCO1 (stereo not drawn) [SQ22,536]
MRMT-1 cells
  inhibition of CGS21680-induced cell proliferation by signalling inhibitor: did not block the agonist effect
A375 cells
  inhibition of CGS21680-induced cell proliferation by signalling inhibitor: did not block the agonist effect
A549 cells
  inhibition of CGS21680-induced cell proliferation by signalling inhibitor: did not block the agonist effect
